Assay results from ChEMBL document CHEMBL1131216, “Anhydrolide macrolides. 2. Synthesis and antibacterial activity of 2,3-anhydro-6-O-methyl 11,12-carbazate erythromycin A analogues” (1998).
In brackets after ≈: the same amount, converted by molar mass.

Assays:
Assay type in all cases: functional
Haemophilus influenzae = assay: In vitro antibacterial activity of DILL strain of Gram negative bacteria Haemophilus influenzae
Streptococcus pneumoniae [1] = assay: In vitro antibacterial activity of 5649 strain of Gram positive bacteria Streptococcus pneumoniae
Streptococcus pneumoniae [2] = assay: In vitro antibacterial activity of 5979 strain of Gram positive bacteria Streptococcus pneumoniae
Streptococcus pneumoniae [3] = assay: In vitro antibacterial activity of ATCC 6303 strain of Gram positive bacteria Streptococcus pneumoniae
Staphylococcus aureus [4] = assay: In vitro antibacterial activity of A5177 strain of Gram positive bacteria Staphylococcus aureus
Streptococcus pyogenes [5] = assay: In vitro antibacterial activity of 930 strain of Gram positive bacteria Streptococcus pyogenes
Streptococcus pyogenes [6] = assay: In vitro antibacterial activity of EES61 strain of Gram positive bacteria Streptococcus pyogenes
Streptococcus pyogenes [7] = assay: In vitro antibacterial activity of PIU2584 strain of Gram positive bacteria Streptococcus pyogenes
Staphylococcus aureus [8] = assay: In vitro antibacterial activity of A-5278 strain of Gram positive bacteria Staphylococcus aureus
Staphylococcus aureus [9] = assay: In vitro antibacterial activity of 6538P strain of Gram positive bacteria Staphylococcus aureus

Structure (SMILES) | MIC (Haemophilus influenzae) | MIC (Streptococcus pneumoniae [1]) | MIC (Streptococcus pneumoniae [2]) | MIC (Streptococcus pneumoniae [3]) | MIC (Staphylococcus aureus [4]) | MIC (Streptococcus pyogenes [5]) | MIC (Streptococcus pyogenes [6]) | MIC (Streptococcus pyogenes [7]) | MIC (Staphylococcus aureus [8]) | MIC (Staphylococcus aureus [9])
CC[C@H]1OC(=O)/C(C)=C/[C@H](C)[C@@H](O[C@@H]2O[C@H](C)C[C@H](N(C)C)[C@H]2O)[C@@](C)(OC)C[C@@H](C)C(=O)[C@H](C)[C@H]2N(NCc3ccc(O)c(O)c3)C(=O)O[C@]12C | 32 mg/L (≈ 43.6 µM) | 2 mg/L (≈ 2.73 µM) | > 128 mg/L | 1 mg/L (≈ 1.36 µM) | 0.78 mg/L (≈ 1.06 µM) | > 128 mg/L | 1 mg/L (≈ 1.36 µM) | 16 mg/L (≈ 21.8 µM) | > 100 mg/L | 0.78 mg/L (≈ 1.06 µM)
CC[C@H]1OC(=O)/C(C)=C/[C@H](C)[C@@H](O[C@@H]2O[C@H](C)C[C@H](N(C)C)[C@H]2O)[C@@](C)(OC)C[C@@H](C)C(=O)[C@H](C)[C@H]2N(NCCCc3ccccc3N)C(=O)O[C@]12C | 16 mg/L (≈ 21.5 µM) |  | > 128 mg/L | 0.03 mg/L (≈ 0.0403 µM) | 0.39 mg/L (≈ 0.524 µM) | 128 mg/L (≈ 172 µM) | 0.06 mg/L (≈ 0.0805 µM) | 1 mg/L (≈ 1.34 µM) | > 100 mg/L | 0.39 mg/L (≈ 0.524 µM)
CC[C@H]1OC(=O)/C(C)=C/[C@H](C)[C@@H](O[C@@H]2O[C@H](C)C[C@H](N(C)C)[C@H]2O)[C@@](C)(OC)C[C@@H](C)C(=O)[C@H](C)[C@H]2N(NCCCc3ccc(Cl)cc3)C(=O)O[C@]12C | 16 mg/L (≈ 20.9 µM) | 1 mg/L (≈ 1.31 µM) | 16 mg/L (≈ 20.9 µM) | 0.03 mg/L (≈ 0.0392 µM) | 0.05 mg/L (≈ 0.0654 µM) | 16 mg/L (≈ 20.9 µM) | 0.125 mg/L (≈ 0.164 µM) | 1 mg/L (≈ 1.31 µM) | 25 mg/L (≈ 32.7 µM) | 0.1 mg/L (≈ 0.131 µM)
CC[C@H]1OC(=O)/C(C)=C/[C@H](C)[C@@H](O[C@@H]2O[C@H](C)C[C@H](N(C)C)[C@H]2O)[C@@](C)(OC)C[C@@H](C)C(=O)[C@H](C)[C@H]2N(NCc3cc(O)ccc3O)C(=O)O[C@]12C | 32 mg/L (≈ 43.6 µM) | 2 mg/L (≈ 2.73 µM) | 128 mg/L (≈ 174 µM) | 0.25 mg/L (≈ 0.341 µM) | 3.1 mg/L (≈ 4.22 µM) | 128 mg/L (≈ 174 µM) | 0.25 mg/L (≈ 0.341 µM) | 4 mg/L (≈ 5.45 µM) | > 100 mg/L | 3.1 mg/L (≈ 4.22 µM)
CC[C@H]1OC(=O)/C(C)=C/[C@H](C)[C@@H](O[C@@H]2O[C@H](C)C[C@H](N(C)C)[C@H]2O)[C@@](C)(OC)C[C@@H](C)C(=O)[C@H](C)[C@H]2N(NCCCc3ccccc3)C(=O)O[C@]12C | 16 mg/L (≈ 21.9 µM) | 2 mg/L (≈ 2.74 µM) | 64 mg/L (≈ 87.7 µM) | 0.125 mg/L (≈ 0.171 µM) | 0.1 mg/L (≈ 0.137 µM) | 32 mg/L (≈ 43.8 µM) | 0.06 mg/L (≈ 0.0822 µM) | 1 mg/L (≈ 1.37 µM) | 50 mg/L (≈ 68.5 µM) | 0.1 mg/L (≈ 0.137 µM)
CC[C@H]1OC(=O)/C(C)=C/[C@H](C)[C@@H](O[C@@H]2O[C@H](C)C[C@H](N(C)C)[C@H]2O)[C@@](C)(OC)C[C@@H](C)C(=O)[C@H](C)[C@H]2N(NCCCc3ccnc4ccccc34)C(=O)O[C@]12C | 2 mg/L (≈ 2.56 µM) | 1 mg/L (≈ 1.28 µM) | > 64 mg/L | 0.004 mg/L (≈ 0.00512 µM) | 0.1 mg/L (≈ 0.128 µM) | > 64 mg/L | 0.004 mg/L (≈ 0.00512 µM) | 0.5 mg/L (≈ 0.64 µM) | > 100 mg/L | 0.2 mg/L (≈ 0.256 µM)
CC[C@H]1OC(=O)/C(C)=C/[C@H](C)[C@@H](O[C@@H]2O[C@H](C)C[C@H](N(C)C)[C@H]2O)[C@@](C)(OC)C[C@@H](C)C(=O)[C@@H](C)[C@H]2N(NCCCc3ccccc3)C(=O)O[C@]12C | > 128 mg/L | 8 mg/L (≈ 11 µM) | 16 mg/L (≈ 21.9 µM) | 2 mg/L (≈ 2.74 µM) |  | 8 mg/L (≈ 11 µM) | 2 mg/L (≈ 2.74 µM) | 8 mg/L (≈ 11 µM) | 25 mg/L (≈ 34.2 µM) | 12.5 mg/L (≈ 17.1 µM)
CC[C@H]1OC(=O)/C(C)=C/[C@H](C)[C@@H](O[C@@H]2O[C@H](C)C[C@H](N(C)C)[C@H]2O)[C@@](C)(OC)C[C@@H](C)C(=O)[C@H](C)[C@H]2N(NCCCc3ccc(N)cc3)C(=O)O[C@]12C | 4 mg/L (≈ 5.37 µM) | 1 mg/L (≈ 1.34 µM) | > 128 mg/L | 0.03 mg/L (≈ 0.0403 µM) |  | > 128 mg/L | 0.03 mg/L (≈ 0.0403 µM) | 1 mg/L (≈ 1.34 µM) | > 100 mg/L | 0.39 mg/L (≈ 0.524 µM)
CC[C@H]1OC(=O)/C(C)=C/[C@H](C)[C@@H](O[C@@H]2O[C@H](C)C[C@H](N(C)C)[C@H]2O)[C@@](C)(OC)C[C@@H](C)C(=O)[C@H](C)[C@H]2N(NCCCn3cnc(-c4ccccc4)c3)C(=O)O[C@]12C | 8 mg/L (≈ 10.1 µM) | 0.5 mg/L (≈ 0.628 µM) | > 128 mg/L | 0.03 mg/L (≈ 0.0377 µM) |  | 128 mg/L (≈ 161 µM) | 0.03 mg/L (≈ 0.0377 µM) | 1 mg/L (≈ 1.26 µM) | > 100 mg/L | 0.2 mg/L (≈ 0.251 µM)
CC[C@H]1OC(=O)/C(C)=C/[C@H](C)[C@@H](O[C@@H]2O[C@H](C)C[C@H](N(C)C)[C@H]2O)[C@@](C)(OC)C[C@@H](C)C(=O)[C@H](C)[C@H]2N(NCc3cc([N+](=O)[O-])ccc3O)C(=O)O[C@]12C | 4 mg/L (≈ 5.24 µM) | 0.25 mg/L (≈ 0.328 µM) | > 128 mg/L | 0.03 mg/L (≈ 0.0393 µM) |  | > 128 mg/L | 0.015 mg/L (≈ 0.0197 µM) | 0.25 mg/L (≈ 0.328 µM) | > 100 mg/L | 0.1 mg/L (≈ 0.131 µM)
CC[C@H]1OC(=O)/C(C)=C/[C@H](C)[C@@H](O[C@@H]2O[C@H](C)C[C@H](N(C)C)[C@H]2O)[C@@](C)(OC)C[C@@H](C)C(=O)[C@H](C)[C@H]2N(NCCCc3cccc(N)c3)C(=O)O[C@]12C | 4 mg/L (≈ 5.37 µM) |  | > 128 mg/L | 0.03 mg/L (≈ 0.0403 µM) | 0.2 mg/L (≈ 0.268 µM) | > 128 mg/L | 0.03 mg/L (≈ 0.0403 µM) | 1 mg/L (≈ 1.34 µM) | > 100 mg/L | 0.2 mg/L (≈ 0.268 µM)
